Experimental data published in patent US4466980A, “Thiaprostaglandin E1 derivatives, process for production thereof, and pharmaceutical use thereof” (Teijin Limited, priority 1980, dated 1984).
Converted amounts (≈) assume the structure as drawn.

Experiments:
platelet aggregation [1] = assay: in vitro inhibitory activity of platelet aggregation (ADP); type: cell-based, rabbit (Japanese domestic white male); conditions: Oryctolagus cuniculus, rabbit PRP, 10 μM ADP, 37° C., read-out: IC50 (minimum concentration which inhibited more than 50% of platelet aggregation)
Method: The in vitro platelet aggregation imhibiting activity of the compounds of the invention were examined by using rabbits. Blood was withdrawn from the ear vein of Japanese domestic white male rabbits weighing 2.5 to 3.5 kg. A mixture of a 3.8% trisodium citrate solution and the blood in a ratio of 1:9 was centrifuged at a speed of 1000 rpm for 10 minutes. The upper layer was separated as platelet-rich plasma (PRP). The lower layer was further centrifuged at a speed of 2800 rpm for 10 minutes. The upper layer was separated as platelet-poor plasma (PPP). The number of platelets was adjusted to 6×10^5 /μl to 7×10^5 /μl by diluting the PRP with PPP. 25 microliters of the test compounds prepared as shown below was added in an amount of 25 to 250 microliters of PRP after the adjustment, and the mixture was pre-incubated at 37° C. for 2 minutes, and then 10 μM (final) of ADP was added. By using an aggregometer, changes in transmission were recorded.
The drug was dissolved in ethanol to a concentration of 10 mg/ml, and successively diluted with phosphate buffer (pH 7.4) prior to use.
The rate of inhibition of platelet aggregation was determined from the following equation. [formula] To : the transmittance of the system containing the phosphate buffer, T: the transmittance of the sytem to which the test drug was added.
The minimum concentration of the drug which inhibited more than 50% of platelet aggregation was shown as an IC50 value.

[2] = system: blood pressure and heart beat rate of rats; assay: hypotensive activity and heart beat rate, intravenous injection in anesthetized rats; type: in vivo, male wister rats; conditions: Rattus norvegicus, i.v.; for ED (10% increase of heart rate): read-out: H-ED10 (dosage causing a 10% increase of the heart rate); for ED (20% lowering of blood pressure): read-out: P-ED20 (dosage causing a 20% lowering of the mean blood pressure)
Method: (1) The actions of the thiaprostaglandin E1 derivatives of the invention on the blood pressure and heart beat rate of rats were examined by intravenous injection under anesthesia. Male wister rats weighing about 250 g were used. Urethane (500 mg/kg) and α-chloralose (100 mg/kg) were intraperitoneally administered to the rats. The rats were anesthetized and fixed in place. Each of the test compounds was dissolved in a small amount of ethanol and diluted with physiological saline to adjust the final ethanol concentration to not more than 5%. The solution was intravenously injected into the rats through a catheter inserted into the femoral vein. The blood pressure of the rats was measured by a pressure transducer through a catheter inserted into the carotid artery of the rats. The heart beat rate was determined from the blood pressure pulse. The action of the test compound of the blood pressure was expressed as the dosage (p-ED20, μg/kg) of the test compound which caused a 20% lowering of the mean blood pressure before administration of the compound. The action of the test compound on the heart rate was expressed as the dosage (H-ED10, μg/kg) of the test compound which caused a 10% increase of the heart rate from the heart beat rate before administration of the test compound.

platelet aggregation [3] = assay: extra vivo inhibitory activity of platelet aggregation after oral administration; type: in vivo, guinea pigs (Hartley strain); conditions: Cavia porcellus; for inhibition at 3 mg/kg: 3 mg/kg p.o.; for inhibition at 10 mg/kg: 10 mg/kg p.o.
Method: The extra vivo platelet aggregation inhibitory activity of the 7-thiaprostaglandin E1 derivatives of the invention were measured by using guinea pigs. A test drug prepared as a 30% ethanol solution of each of the compounds of the invention in ethanol diluted with physiological saline and as a control 30% ethanol solution were orally adminstered in a dose of 1 ml/kg to Hartleystrain guinea pigs having a body weight of 350 to 450 g which had been fasted for 17 hours. 1 hour or 4 hours after the administration of the compound, blood was drawn off by the cardiac puncture using trisodium citrate so that the ratio of the blood to 3.8% trisodium citrate was 9:1. The blood was centrifuged at a speed of 700 rpm for 10 minutes. The upper layer was separated as plateletrich plasma (PRP). The lower layer was further centrifuged at a speed of 2800 rpm for 10 minutes. The upper layer was separated as platelet poor plasma (PPP). 250 microliters of the resulting PRP was taken into an aggregometer cuvette, and incubated at 37° C. for 2 minutes. Then, 25 microliters of a […] ADP disodium solution adjusted by dissolving with 0.1M tris-HCl buffer (ph 8.0) was added. The aggregation curve was recorded for 3 minutes. The maximum degree of aggregation of platelets within this time period was read, and the rate of inhibitor of platelet aggregation was calculated from the following equation. [formula] TC : the transmittance of a control group (to which only the 30% ethanol solution was administered),
TD : the transmittance of a drug administered group.

Row | IC50 (platelet aggregation [1]) | Compound | other results
1 | > 100 mg/L | CCCC(C)CC(O)/C=C/[C@H]1CCC(=O)[C@@H]1SCCCCCC(=O)OC (relative stereo) [reference compound] | 
2 | 8.9 mg/L (≈ 23 µM) | CCCCC[C@H](O)/C=C/[C@H]1[C@H](SCCCCCC(=O)OC)C(=O)C[C@@H]1O [15-epi-ent of Compound 124] | 
3 | 0.11 mg/L (≈ 0.276 µM) | COC(=O)CCCCCS[C@@H]1C(=O)C[C@H](O)[C@H]1/C=C/[C@@H](O)C1CCCCC1 [15-epi-ent of Compound 138] | 
4 | 0.004 mg/L (≈ 0.0104 µM) | O=C(O)CCCCCS[C@H]1C(=O)C[C@@H](O)[C@@H]1/C=C/[C@@H](O)C1CCCCC1 [Compound 111, 16,17,18,19,20-pentanor-15-cyclohexyl-7-thiaprostaglandin E1] | ED (10% increase of heart rate) [2]: 2.5 µg/kg; ED (20% lowering of blood pressure) [2]: 1.17 µg/kg
5 | 0.47 mg/L (≈ 1.22 µM) | CCCCC[C@H](O)/C=C/[C@H]1[C@H](O)CC(=O)[C@@H]1SCCCCCC(=O)OC [Compound 124, 7-Thiaprostaglandin E1 methyl ester] | 
6 | 0.0006 mg/L (≈ 0.00145 µM) | CCCC[C@H](C)C[C@H](O)/C=C/[C@H]1[C@H](O)CC(=O)[C@@H]1SCCCCCC(=O)OC [Compound 131, 17(S),20-dimethyl-7-thiaprostaglandin E1 methyl ester] | ED (10% increase of heart rate) [2]: 0.83 µg/kg; ED (20% lowering of blood pressure) [2]: 2.3 µg/kg; inhibition at 3 mg/kg (platelet aggregation [3]; 1 hr): 100%
7 | 0.0018 mg/L (≈ 0.00434 µM) | CCCC[C@@H](C)C[C@H](O)/C=C/[C@H]1[C@H](O)CC(=O)[C@@H]1SCCCCCC(=O)OC [Compound 134, 17(R),20-dimethyl-7-thiaprostaglandin E1 methyl ester] | 
8 | 0.058 mg/L (≈ 0.111 µM) | CCCCCCCCCCOC(=O)CCCCCS[C@H]1C(=O)C[C@@H](O)[C@@H]1/C=C/[C@@H](O)C1CCCCC1 [Compound 143, 16,17,18,19,20-pentanor-15-cyclohexyl-7-thiaprostaglandin E1 decyl ester] | 
9 | 0.015 mg/L (≈ 0.0326 µM) | O=C(CCCCCS[C@H]1C(=O)C[C@@H](O)[C@@H]1/C=C/[C@@H](O)C1CCCCC1)Oc1ccccc1 [Compound 144, 16,17,18,19,20-pentanor-15-cyclohexyl-7-thiaprostaglandin E1 phenyl ester] | ED (10% increase of heart rate) [2]: 2.6 µg/kg; ED (20% lowering of blood pressure) [2]: 3.4 µg/kg; inhibition at 3 mg/kg (platelet aggregation [3]; 1 hr): 37.4%; inhibition at 3 mg/kg (platelet aggregation [3]; 4 hr): 3%; inhibition at 10 mg/kg (platelet aggregation [3]; 1 hr): 85.4%; inhibition at 10 mg/kg (platelet aggregation [3]; 4 hr): 79.2%
10 | 0.054 mg/L (≈ 0.114 µM) | O=C(CCCCCS[C@H]1C(=O)C[C@@H](O)[C@@H]1/C=C/[C@@H](O)C1CCCCC1)OCc1ccccc1 [Compound 147, 16,17,18,19,20-pentanor-15-cyclohexyl-7-thiaprostaglandin E1 benzyl ester] | inhibition at 10 mg/kg (platelet aggregation [3]; 1 hr): 54%; inhibition at 10 mg/kg (platelet aggregation [3]; 4 hr): 28.9%
11 | 0.52 mg/L (≈ 1.26 µM) | COC(=O)C(C)CCCCS[C@H]1C(=O)C[C@@H](O)[C@@H]1/C=C/[C@@H](O)C1CCCCC1 (stereo partly shown) [Compound 150, 16,17,18,19,20-pentanor-15-cyclohexyl-2-methyl-7-thiaprostaglandin E1 methyl ester] | inhibition at 10 mg/kg (platelet aggregation [3]; 1 hr): 20.8%; inhibition at 10 mg/kg (platelet aggregation [3]; 4 hr): 0.7%
12 | 0.091 mg/L (≈ 0.229 µM) | COC(=O)/C=C/CCCS[C@H]1C(=O)C[C@@H](O)[C@@H]1/C=C/[C@@H](O)C1CCCCC1 [Compound 156, 16,17,18,19,20-pentanor-15-cyclohexyl-2,3-dehydro-7-thiaprostaglandin E1 methyl ester] | 
13 | 0.64 mg/L (≈ 1.55 µM) | CCCC[C@H](C)C[C@H](O)/C=C/[C@H]1[C@H](O)CC(=O)[C@@H]1SCCC/C=C/C(=O)OC [Compound 160, 17(S),20-dimethyl-2,3-dehydro-7-thiaprostaglandin E1 methyl ester] | 
14 | 0.45 mg/L (≈ 1.21 µM) | CCCCC[C@H](O)/C=C/[C@H]1[C@H](O)CC(=O)[C@@H]1CSCCCCC(=O)O [Compound 300, 6-thiaprostaglandin E1] | 
15 | 0.27 mg/L (≈ 0.702 µM) | O=C(O)CCCCSC[C@H]1C(=O)C[C@@H](O)[C@@H]1/C=C/[C@@H](O)C1CCCCC1 [Compound 303, 16,17,18,19,20-pentanor-15-cyclohexyl-6-thiaprostaglandin E1] | 
16 | 6 mg/L (≈ 15.5 µM) | CCCCC[C@H](O)/C=C/[C@H]1[C@H](O)CC(=O)[C@@H]1CSCCCCC(=O)OC [Compound 305, 6-thiaprostaglandin E1 methyl ester] | 
17 | 0.32 mg/L (≈ 0.803 µM) | COC(=O)CCCCSC[C@H]1C(=O)C[C@@H](O)[C@@H]1/C=C/[C@@H](O)C1CCCCC1 [Compound 308, 16,17,18,19,20-pentanor-15-cyclohexyl-6-thiaprostaglandin E1 methyl ester] | 
18 | 8.6 mg/L (≈ 22.2 µM) | CCCCC[C@H](O)/C=C/[C@H]1[C@H](O)CC(=O)[C@@H]1CCCSCCC(=O)OC [Compound 405, 4-thiaprostaglandin E1 methyl ester] | 
19 | 2.4 mg/L (≈ 6.02 µM) | COC(=O)CCSCCC[C@H]1C(=O)C[C@@H](O)[C@@H]1/C=C/[C@@H](O)C1CCCCC1 [Compound 413] | 
